`Fc1ccc(-c2nnc3cc(Cl)ncn23)c(F)c1` registered a melting point of 170 to 172 °C.

The compound `O=C(O)c1cn(-c2ccccc2)nc1-c1cccnc1` yielded a melting point of 238 to 240 °C.

Regarding `COC(=O)c1oc(CO)cc1C`, the melting point fell in the range of 87 to 89 °C.

Consider `O=C(O)c1nc[nH]n1`, for which the melting point was 132 to 136 °C.

`CC(=O)NCCc1ccc(C(C)=O)cc1` returned a melting point of 94 to 96 °C.

As to `NC(=O)COc1ccc(C(=O)O)cc1`, the melting point was 273 to 275 °C.

In turn, `CC(C)(C#N)Cc1ccccc1` yielded a melting point of 47 to 49 °C.

`COc1cc(C(C)=O)ccc1OCCCC(=O)O` yielded a melting point of 163 to 165 °C.

The compound `CCOC(=O)c1cnn2c3c(cnc12)CCOC3=O` displayed a melting point of 246 to 248 °C.

Compound `Nc1ccc(Br)cc1-c1nc(C2CC2)no1` showed a melting point of 123 to 125 °C.

`CC(C)(C(=O)O)c1ccc(N)cc1` had a melting point of 165 to 167 °C.

`O=C(O)C1CC1c1ccccc1OC(F)F` (configuration not stated) had a melting point of 63 to 65 °C.

Take `COc1ccccc1Cn1cnc2cc(C)c(C)cc21`: the melting point is 126 to 128 °C.

Consider `Nc1ccccc1C(=O)NCC1CCCO1` (configuration not stated), for which the melting point was in the range of 78 to 80 °C.

The compound `O=Cc1c(-c2ccc(Br)s2)nc2ccccn12` registered a melting point of 186 to 188 °C.

For the compound `CN1C(=O)CC(C(=O)O)c2ccccc21` (configuration not stated), the melting point was 162 to 164 °C.

`CC(C)(C)OC(=O)Cc1cccc(N)c1` returned a melting point of 47 to 49 °C.

For the compound `O=C1c2ccccc2S(=O)(=O)N1CCBr`, the melting point was 94 to 96 °C.

In the case of `CNc1snc(C)c1C(=O)O`, the melting point was in the range of 151 to 153 °C.

`CC(C)(C)CNC(=O)Nc1ccc(Cl)c(C(=O)O)c1`: the melting point lay in the range of 208 to 210 °C.

In turn, `Nc1ccc(O)cc1C(=O)NCc1ccccc1` came in with a melting point of 154 to 156 °C.

Compound `Cc1ccc(C2CNCCO2)c(C)c1` (configuration not stated) registered a melting point of 49 to 51 °C.

For `CC(C)(C)Sc1ccc(C(N)=S)cn1`, the melting point was in the range of 178 to 180 °C.

`CC(C)NC(=O)CC1(C(=O)O)CCCC1` gave a melting point of 139 to 141 °C.

The compound `CN(C)c1ccc(N)cc1Cl` yielded a melting point of 72 to 73 °C.

Compound `NC(=S)C1(NC(=O)c2ccccc2)CCCC1` had a melting point of 189 to 191 °C.

`CC(C)(C)OC(=O)N1CCCC(C(=O)NC2CCCNC2)C1` (configuration not stated) had a melting point of 116 to 118 °C.

Consider `O=C1NC(=O)c2cc(Cl)c(Cl)cc21`, for which the melting point lay in the range of 217 to 219 °C.

`COC(=O)c1c(F)cccc1S(=O)(=O)Cl`: the melting point was 46 to 48 °C.

Turning to `O=C(O)c1cncc2ccccc12`, the melting point fell in the range of 249 to 251 °C.

Regarding `COc1c(F)ccc(F)c1C(=O)O`, the melting point lay within 82 to 84 °C.

`CC(C)(C)OC(=O)NCc1nnc(S)o1` had a melting point of 106 to 108 °C.

With `CCCCN1C(=O)c2ccc(C(=O)O)cc2C1=O`, the melting point lay in the range of 152 to 154 °C.

With `O=Cc1ccc(-c2ccccc2[N+](=O)[O-])s1`, the melting point lay within 112 to 114 °C.

As to `CCOC(=O)c1ccc(S)nc1`, the melting point fell in the range of 135 to 137 °C.

On to `Cc1occc1-c1nnc(S)n1C`, for which the melting point lay in the range of 118 to 120 °C.

`O=C(O)c1ccc(Cl)c(N2CCCC2=O)c1`: the melting point lay within 288 to 290 °C.

Regarding `CC(C)(C)OC(=O)N1CCC(NC(N)=O)CC1`, the melting point lay within 217 to 219 °C.

`CCN1CCN(c2ccc(Cl)cc2N)CC1` showed a melting point of 110 to 112 °C.

`O=C(O)c1ccc2[nH]nnc2n1` registered a melting point of 277 to 279 °C.

For `CCCCC1(c2ccc(F)cc2)NC(=O)NC1=O` (configuration not stated), the melting point fell in the range of 113 to 115 °C.

Compound `NC(=S)c1cncnc1N` had a melting point of 197 to 199 °C.

`Cc1ccc2c(c1)C(=O)C(=O)N2` displayed a melting point of 180 to 184 °C.

In turn, `O=C(O)CCn1nnnc1S` yielded a melting point of 156 to 158 °C.

`Cc1cccc2[nH]cc(CCC(=O)O)c12`: the melting point was in the range of 145 to 147 °C.

In the case of `Cn1nc(C(=O)O)ccc1=O`, the melting point lay within 170 to 175 °C.

`CN1C(=O)CCC(C(=O)O)C1c1ccccc1` (configuration not stated) gave a melting point of 204 to 206 °C.

`Cc1nc2ccc(N)cc2o1` had a melting point of 129 to 131 °C.

In turn, `NNc1c(Cl)cc(C(=O)O)cc1Cl` returned a melting point of 207 to 209 °C.

Turning to `N#CCC(=O)Nc1cccc(Cl)c1`, the melting point lay within 139 to 141 °C.

For `Nc1ccc(NCCCC(=O)O)cc1`, the melting point fell in the range of 148 to 150 °C.

With `CC(=O)Nc1cccc(S(=O)(=O)Cl)c1`, the melting point was in the range of 78 to 80 °C.

`CC(C)(C)n1c(N)nc2ccccc21` yielded a melting point of 158 to 160 °C.

With `NS(=O)(=O)c1ccc2c(c1)OCO2`, the melting point was 155 to 157 °C.

For `O=C(O)c1cccnc1Oc1cccnc1`, the melting point is 190 to 192 °C.

For the compound `O=C(O)C1CCCN(S(=O)(=O)c2cccnc2)C1` (configuration not stated), the melting point is 214 to 216 °C.

`NNc1ccc2cccc(O)c2n1` had a melting point of 156 to 158 °C.

In turn, `O=C1CCCc2cc(S(=O)(=O)Cl)ccc2N1` returned a melting point of 208 to 210 °C.

`O=C(O)c1csc(-c2cc3ccccc3o2)n1` had a melting point of 242 to 244 °C.

The compound `CCOC(=O)C(=O)c1nccn1Cc1ccccc1` yielded a melting point of 57 to 59 °C.

`C=CC(=O)Nc1ccc(OCC)c(CO)c1` yielded a melting point of 129 to 131 °C.

`CC(C)(C(=O)O)c1ccc2c(c1)OCCO2` showed a melting point of 125 to 127 °C.

On to `CC(C)(C#N)N1CCN(C(C)(C)C#N)CC1`, for which the melting point lay in the range of 182 to 184 °C.

Regarding `Oc1ccc(-c2noc(C3CC3)n2)cc1`, the melting point was in the range of 149 to 151 °C.

Take `O=C(O)CCc1cc(F)ccc1F`: the melting point lay within 71 to 73 °C.

Take `COc1ccc(C(=O)CCl)c(OC)c1`: the melting point was 48 to 50 °C.

In the case of `COc1ccnc(NN)n1`, the melting point is 119 to 121 °C.

In turn, `CCCn1c(C)c(C(=O)O)c2cc(OC)ccc21` came in with a melting point of 171 to 173 °C.

The compound `CC(C)S(=O)(=O)Cc1cccc(N)c1` showed a melting point of 113 to 115 °C.

The compound `CC(=O)c1csc(C(=O)CCl)c1` returned a melting point of 124 to 126 °C.

On to `NS(=O)(=O)c1cc(Br)c(Cl)c(C(=O)O)c1`, for which the melting point lay in the range of 219 to 221 °C.

Compound `Cc1c(C(=O)O)sc2nc(CCl)[nH]c(=O)c12` had a melting point of 322 to 324 °C.

In the case of `Nc1ccc(F)c(NS(=O)(=O)Cc2ccccc2)c1`, the melting point lay within 172 to 174 °C.

In turn, `CSc1ccc(C(=O)CCl)cc1` displayed a melting point of 72 to 74 °C.

For the compound `Cc1nccn1-c1ccc(F)cc1N`, the melting point was 153 to 155 °C.

As to `NCc1noc(-c2ccco2)n1`, the melting point lay in the range of 143 to 145 °C.

For `N#CCc1cnn(-c2ccccc2)n1`, the melting point was in the range of 65 to 67 °C.

Take `O=C(O)CC1CCCN1Cc1nc2ccccc2c(=O)[nH]1` (configuration not stated): the melting point was in the range of 197 to 199 °C.

In turn, `CC(C)c1cccc(S(N)(=O)=O)c1` registered a melting point of 74 to 76 °C.

On to `C#CCNC(=O)C(C)Cl` (configuration not stated), for which the melting point fell in the range of 61 to 63 °C.

For `c1ccc2c(c1)NCCS2`, the melting point is 34 to 38 °C.

Compound `Nc1nc2ccc(S(=O)(=O)N3CCCC3)cc2s1` yielded a melting point of 225 to 227 °C.

As to `O=S(CCCl)c1cc(Cl)ccc1Cl` (configuration not stated), the melting point is 68 to 70 °C.

In turn, `O=C(O)c1cnn2cc(Br)cnc12` gave a melting point of 199 to 201 °C.

For `COC(=O)c1c[nH][nH]c1=O`, the melting point lay in the range of 209 to 211 °C.

The compound `CN(C)CCN1C(=O)C(=O)c2cc(Br)ccc21` registered a melting point of 102 to 104 °C.

Compound `COC(=O)c1cc([N+](=O)[O-])cc([N+](=O)[O-])c1F` yielded a melting point of 67 to 69 °C.

With `Cc1c(NC(=O)CSc2ccccc2C(=O)O)c(=O)n(-c2ccccc2)n1C`, the melting point is 120 to 123 °C.

Turning to `CNc1ccc(C#N)cc1F`, the melting point lay in the range of 76 to 78 °C.

Compound `Cc1nn(C)c(Cl)c1CC(=O)O` had a melting point of 169 to 171 °C.

Compound `Cn1cc(CO)c(-c2ccccc2)n1` yielded a melting point of 107 to 109 °C.

In turn, `Cc1oc(Cn2cc(Br)cn2)cc1C(=O)O` had a melting point of 159 to 161 °C.

`S=C1CCCCN1` had a melting point of 92 to 94 °C.

As to `O=C(CC1CCCCC1)NC1CCC(C(=O)O)CC1` (configuration not stated), the melting point fell in the range of 136 to 138 °C.

`Cc1c(Cl)nn2c(C(F)(F)F)nnc2c1C` displayed a melting point of 93 to 95 °C.

Take `CCn1cc(C(F)(F)C(=O)O)cn1`: the melting point lay in the range of 99 to 101 °C.

As for `O=C(CCl)NCc1ccc(C(=O)O)cc1`, the melting point fell in the range of 193 to 195 °C.

Take `COc1ccc(N2C(=O)CC(=O)NC2=S)cc1`: the melting point lay in the range of 241 to 243 °C.

Regarding `O=S(=O)(Cl)c1ccc(S(=O)(=O)C(F)F)cc1`, the melting point is 139 to 141 °C.

The compound `Cc1cc(C)n(-c2ccc(C(=O)O)cn2)n1` displayed a melting point of 241 to 243 °C.

For `CN1CCN(c2ccc(CN)cn2)CC1`, the melting point lay in the range of 60 to 62 °C.

With `Cn1[nH]c(=O)nc1S`, the melting point was in the range of 216 to 220 °C.

On to `Nc1ccc(S(=O)(=O)NC2CC2)cc1`, for which the melting point was 145 to 147 °C.

Take `CC(C)(C)OC(=O)NCCCCC(=O)O`: the melting point was in the range of 43 to 45 °C.

For `COc1ccc(-c2noc(=O)[nH]2)cc1OC`, the melting point was 211 to 213 °C.

For `O=C1/C(=C\C=C\c2ccco2)CCC/C1=C\C=C\c1ccco1`, the melting point was 162 to 164 °C.

For `CC(C)(C)OC(=O)Nc1ccc(CC(=O)O)cc1`, the melting point is 153 to 155 °C.

Consider `CN(C)S(=O)(=O)c1ccc(Cl)c(C(=O)NCCCCCC(=O)O)c1`, for which the melting point was 84 to 86 °C.

Regarding `O=C(O)c1cnn(-c2ccc(Br)cc2)c1`, the melting point lay in the range of 254 to 256 °C.

The compound `O=C(N=C=S)c1ccc(Cl)c(Cl)c1` displayed a melting point of 49 to 51 °C.

In turn, `CC(C)(C)n1ncc2c(=O)[nH]c(Cl)nc21` displayed a melting point of 191 to 193 °C.

The compound `Nc1ccc(Sc2ccccc2Cl)cc1` showed a melting point of 77 to 79 °C.

On to `Cc1n[nH]c(=O)c2noc(C)c12`, for which the melting point lay within 213 to 215 °C.

`CNC(=O)NC1(C(=O)O)CCCC1` yielded a melting point of 165 to 167 °C.

As for `COC(=O)c1ccc(=O)[nH]n1`, the melting point lay in the range of 188 to 190 °C.

Compound `Cc1nc2ccccc2cc1C(=O)O` had a melting point of 243 to 245 °C.

Turning to `CC(C)c1c(C(=O)O)cnn1-c1ccc(C(F)(F)F)cn1`, the melting point lay in the range of 168 to 170 °C.

In turn, `CON=Cc1ccc(C(=O)O)cc1` yielded a melting point of 183 to 185 °C.

Regarding `Clc1ccc(OCCCBr)cc1`, the melting point lay in the range of 29 to 34 °C.

Take `CN(C)S(=O)(=O)c1cncc(C=CC(=O)O)c1`: the melting point lay in the range of 242 to 244 °C.

Compound `COC(=O)CCCc1csc(N)n1` came in with a melting point of 69 to 71 °C.

Regarding `CC(=O)Nc1c(Br)cccc1[N+](=O)[O-]`, the melting point is 192 to 194 °C.

The values are drawn from a melting point compilation (Tetko et al.).
